# Values of other authors as cited in PubChem BioAssay AID1259409 (Chemical Carcinogenesis Research Information System (CCRIS), 2018).
# System: rodent chemically induced tumor inhibition, incidence and multiplicity
# Assay: CCRIS tumor inhibitor studies
# Settings: Route [Inhibitor]: ORAL, Species: HAMSTER, Promoter: NONE USED
structure (smiles),measurement,setting,value
CC1=C(/C=C/C(C)=C/C=C/C(C)=C/C(=O)NCCO)C(C)(C)CCC1,"tumour outcome (control, treated, inhibition, significance)","Carcinogen: N-NITROBIS(2-OXOPROPYL)AMINE, 60559-38-4, Dose [Inhibitor]: 0.5 OR 1.0 MMOL/KG DIET DAILY STARTING 1 WK AFTER CARCINOGEN TREATMENT AND CONTINUING THROUGH THE END OF THE STUDY (STUD, Strain/Sex: SYRIAN/MALE, Target Tissue: Type of Lesion: PANCREAS: DUCTULAR CARCINOMA, Dose [Carcinogen]: 10 MG/KG BW ONCE","4/22 (18%), 7/37 (19%), -6%, not significant"
same,"tumour outcome (control, treated, inhibition, significance)","Carcinogen: N-NITROBIS(2-OXOPROPYL)AMINE, 60559-38-4, Dose [Inhibitor]: 0.5 OR 1.0 MMOL/KG DIET DAILY STARTING 1 WK AFTER CARCINOGEN TREATMENT AND CONTINUING THROUGH THE END OF THE STUDY (STUD, Strain/Sex: SYRIAN/MALE, Target Tissue: Type of Lesion: PANCREAS: DUCTULAR CARCINOMA, Dose [Carcinogen]: 40 MG/KG BW ONCE","5/24 (21%), 20/42 (48%), -129%, not significant"
same,"tumour outcome (control, treated, inhibition, significance)","Carcinogen: N-NITROBIS(2-OXOPROPYL)AMINE, 60559-38-4, Dose [Inhibitor]: 0.5 OR 1.0 MMOL/KG IN DIET STARTING 1 WK AFTER CARCINOGEN TREATMENT AND CONTINUING THROUGH THE END OF THE STUDY (STUDY D, Strain/Sex: SYRIAN/FEMALE, Target Tissue: Type of Lesion: LIVER: BENIGN TUMOR, Dose [Carcinogen]: 40 MG/KG BW ONCE","4/20 (20%), 17/35 (49%), -145%, not significant"
same,"tumour outcome (control, treated, inhibition, significance)","Carcinogen: N-NITROBIS(2-OXOPROPYL)AMINE, 60559-38-4, Dose [Inhibitor]: 0.5 OR 1.0 MMOL/KG IN DIET STARTING 1 WK AFTER CARCINOGEN TREATMENT AND CONTINUING THROUGH THE END OF THE STUDY (STUDY D, Strain/Sex: SYRIAN/FEMALE, Target Tissue: Type of Lesion: PANCREAS: DUCTULAR ADENOMA, Dose [Carcinogen]: 10 MG/KG BW ONCE","5/23 (23%), 10/37 (27%), -17%, not significant"
same,"tumour outcome (control, treated, inhibition, significance)","Carcinogen: N-NITROBIS(2-OXOPROPYL)AMINE, 60559-38-4, Dose [Inhibitor]: 0.5 OR 1.0 MMOL/KG IN DIET STARTING 1 WK AFTER CARCINOGEN TREATMENT AND CONTINUING THROUGH THE END OF THE STUDY (STUDY D, Strain/Sex: SYRIAN/FEMALE, Target Tissue: Type of Lesion: PANCREAS: DUCTULAR ADENOMA, Dose [Carcinogen]: 40 MG/KG BW ONCE","12/20 (60%), 27/33 (82%), -37%, not significant"
same,"tumour outcome (control, treated, inhibition, significance)","Carcinogen: N-NITROBIS(2-OXOPROPYL)AMINE, 60559-38-4, Dose [Inhibitor]: 0.5 OR 1.0 MMOL/KG IN DIET STARTING 1 WK AFTER CARCINOGEN TREATMENT AND CONTINUING THROUGH THE END OF THE STUDY (STUDY D, Strain/Sex: SYRIAN/FEMALE, Target Tissue: Type of Lesion: PANCREAS: DUCTULAR CARCINOMA, Dose [Carcinogen]: 40 MG/KG BW ONCE","6/20 (30%), 8/33 (24%), 20%, not significant"
same,"tumour outcome (control, treated, inhibition, significance)","Carcinogen: N-NITROBIS(2-OXOPROPYL)AMINE, 60559-38-4, Dose [Inhibitor]: 0.5 OR 1.0 MMOL/KG IN DIET STARTING 1 WK AFTER CARCINOGEN TREATMENT AND CONTINUING THROUGH THE END OF THE STUDY (STUDY D, Strain/Sex: SYRIAN/MALE, Target Tissue: Type of Lesion: LIVER: BENIGN TUMOR, Dose [Carcinogen]: 40 MG/KG BW ONCE","5/24 (21%), 26/42 (62%), -195%, p<0.05"
same,"tumour outcome (control, treated, inhibition, significance)","Carcinogen: N-NITROBIS(2-OXOPROPYL)AMINE, 60559-38-4, Dose [Inhibitor]: 0.5 OR 1.0 MMOL/KG IN DIET STARTING 1 WK AFTER CARCINOGEN TREATMENT AND CONTINUING THROUGH THE END OF THE STUDY (STUDY D, Strain/Sex: SYRIAN/MALE, Target Tissue: Type of Lesion: PANCREAS: DUCTULAR ADENOMA, Dose [Carcinogen]: 10 MG/KG BW ONCE","3/22 (14%), 16/37 (43%), -207%, not significant"
same,"tumour outcome (control, treated, inhibition, significance)","Carcinogen: N-NITROBIS(2-OXOPROPYL)AMINE, 60559-38-4, Dose [Inhibitor]: 0.5 OR 1.0 MMOL/KG IN DIET STARTING 1 WK AFTER CARCINOGEN TREATMENT AND CONTINUING THROUGH THE END OF THE STUDY (STUDY D, Strain/Sex: SYRIAN/MALE, Target Tissue: Type of Lesion: PANCREAS: DUCTULAR ADENOMA, Dose [Carcinogen]: 40 MG/KG BW ONCE","8/24 (33%), 34/42 (81%), -145%, not significant"
same,"tumour outcome (control, treated, inhibition, significance)","Carcinogen: N-NITROBIS(2-OXOPROPYL)AMINE, 60559-38-4, Dose [Inhibitor]: 0.5 OR 1.0 MMOL/KG IN DIET STARTING 1 WK AFTER CARCINOGEN TREATMENT AND CONTINUING THROUGH THE END OF THE STUDY (STUDY D, Strain/Sex: SYRIAN/MALE, Target Tissue: Type of Lesion: PANCREAS: DUCTULAR CARCINOMA, Dose [Carcinogen]: 10 MG/KG BW SINGLE INJECTION","4/22 (18%), 7/37 (19%), -6%, not significant"
same,"tumour outcome (control, treated, inhibition, significance)","Carcinogen: N-NITROBIS(2-OXOPROPYL)AMINE, 60559-38-4, Dose [Inhibitor]: 0.5 OR 1.0 MMOL/KG IN DIET STARTING 1 WK AFTER CARCINOGEN TREATMENT AND CONTINUING THROUGH THE END OF THE STUDY (STUDY D, Strain/Sex: SYRIAN/MALE, Target Tissue: Type of Lesion: PANCREAS: DUCTULAR CARCINOMA, Dose [Carcinogen]: 40 MG/KG BW ONCE","5/24 (21%), 20/42 (48%), -129%, not significant"
same,"tumour outcome (control, treated, inhibition, significance)","Carcinogen: N-NITROSOBIS(2-OXYPROPYL)AMINE, 60599-38-4, Dose [Inhibitor]: 0.05, 0.1 OR 0.2 MILLIMOLAR/KG DIET FOR 32 WK STARTING 1 WK AFTER CARCINOGEN DOSE (STUDY DURATION: 33 WK), Strain/Sex: SYRIAN/FEMALE, Target Tissue: Type of Lesion: LIVER: ADENOMA, Dose [Carcinogen]: 40 MG/KG ONCE","6/10 (60%), 6/29 (21%), 65%, p<0.025"
